Reference: patent US20240400584A1, “COMPOUNDS AND METHODS FOR MODULATING SPLICING” (REMIX THERAPEUTICS INC., priority 2021, published 2024)

Assays:
MYB = test: RT-qPCR splicing assay, MYB AJ/CJ mRNA; assay type: cell-based; conditions: Homo sapiens, A673 or K562 cells, 24 hours; for IC50: decrease in canonical junction mRNA; for AC50: increase in alternative junction mRNA
Outline: (§1)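 HTT and MYB canonical (CJ) and alternative-exon (AJ) junction transcripts quantified by one-step RT-qPCR from lysates of A673 or K562 cells treated 24 h with 11-point 3-fold dilutions (top 10 uM, ≤0.25% DMSO). Ct normalized to GAPDH, GUSB or PPIA and DMSO control (2^−ΔΔCt), expressed as % response.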

[1] = tested on: HiBit-tagged MYB in K562 cells; test: HiBiT protein abundance assay, MYB; assay type: cell-based, human; conditions: HiBiT-modified K562 cells, 24 hours, luminescence
Method: Compounds described herein were used to screen for effects on quantitative protein abundance using a HiBit assay system (Promega). Quantitative protein abundance was determined by measuring the protein levels of HiBit-tagged protein targets expressed in cell culture via luminescence using the Nano-Glo HiBiT Lytic Detection System, which uses a split complementation assay format to reconstitute NanoBiT enzyme to generate a luminescent signal. A protein abundance assay was developed such that endogenous protein targets could be modified with the HiBiT peptide tag and their abundance could be assessed after compound treatment. Briefly, K562 cell lines containing a HiBiT-modification were treated with various compounds described herein (e.g., compounds of Formulas (I)). After treatment for 24 hours, the protein abundance of a specific target was determined by measuring luminescence.
Cells were maintained in IMDM with 10% FBS. Before the assay, cells were diluted with […] growth media (IMDM+[…] media) and were seeded in a 384-well plate at a density of 10000 cells/well (for each cell line listed in Table 8). Each compound was prepared as a 10-point 3-fold serial dilution in DMSO with the top dose at a final concentration of 10 μM in the well. Unmodified K562 cells were added at the previously specified density with DMSO to serve as an assay baseline and positive control (PC) and DMSO only with the respective modified cell lines was added to the negative control (NC) columns. Final DMSO concentration was kept at or below 0.25% o. Treated cell plates were placed in an incubator at 37° C. with […] for 24 hours. After 24 hours, 25 μL of Complete HiBit Lytic reagent was added to each well at room temperature (e.g. one plate requiring 10 mL Lytic Buffer, 100 μL LgBiT Protein, 200 μL Lytic Substrate), shaken for 5 minutes at 600 RPM, then left to sit for 10 minutes for signal to stabilize before reading on a Spark Cyto plate reader (Tecan) with a 500 ms measurement time.
To determine compound effects on protein abundance of each target in Table 9, the percent response for each respective cell line was calculated at each compound concentration as follows:
For the normalized response at each concentration, a four-parameter logistical regression was fit to the data and the response was interpolated at the […] to determine a concentration for protein abundance at 50% o (IC50) the untreated control.

HTT = test: RT-qPCR splicing assay, HTT AJ/CJ mRNA; assay type: cell-based, human; conditions: Homo sapiens, A673 or K562 cells; for IC50: decrease in canonical junction mRNA; for AC50: increase in alternative junction mRNA
Outline: as §1

SMILES	IC50 (MYB)	AC50 (MYB)	IC50 [1]	IC50 (HTT; 24 h)	AC50 (HTT; 24 h)	IC50 (HTT; 24 hours)	AC50 (HTT; 24 hours)
COc1cc(-c2ccc3c(c2)COc2nc(N(C)[C@@H]4C[C@H]5CC[C@@H](C4)N5)ccc2-3)cnn1 [Compound 159]	< 100 nM	< 100 nM	< 100 nM	< 100 nM	< 100 nM		
Cc1cn(-c2ccc3c(c2)COc2nc(N(C)[C@@H]4C[C@H]5CC[C@@H](C4)N5)ccc2-3)cn1 [Compound 164]	100 to 1000 nM	100 to 1000 nM	100 to 1000 nM	< 100 nM	< 100 nM		
CN(c1ccc2c(n1)COc1cc(-c3cn[nH]c3)ccc1-2)[C@@H]1C[C@H]2CC[C@@H](C1)N2 [Compound 121]	1000 to 10000 nM	1000 to 10000 nM	1000 to 10000 nM	100 to 1000 nM	100 to 1000 nM		
CC(C)Oc1cnnc(-c2ccc3c(c2)COc2nc(N4CCC(NC(C)(C)C)C4)ccc2-3)c1 (stereo not shown) [Compound 286]	> 10000 nM	> 10000 nM	1000 to 10000 nM	> 10000 nM	> 10000 nM		
CN(c1ccc2c(n1)OCc1cc(-c3cn[nH]c3)ccc1-2)[C@@H]1C[C@H]2CC[C@@H](C1)N2 [Compound 108]	100 to 1000 nM	1000 to 10000 nM	< 100 nM	< 100 nM	< 100 nM		
C[C@H]1C[C@H](N(C)c2ccc3c(c2)OCc2cc(-c4cn[nH]c4)ccc2-3)CCN1 [Compound 102]	> 10000 nM	1000 to 10000 nM	1000 to 10000 nM	> 10000 nM	> 10000 nM		
CN(c1ccc2c(n1)OCCc1cc(-c3cn[nH]c3)ccc1-2)C1CC(C)(C)NC(C)(C)C1 [Compound 145]	1000 to 10000 nM	> 10000 nM	1000 to 10000 nM	> 10000 nM	> 10000 nM		
COc1cc(-c2ccc3c(c2)COc2nc(N(C)[C@@H]4C[C@H]5CC[C@@H](C4)N5)ccc2-3)ccn1 [Compound 156]	100 to 1000 nM	100 to 1000 nM	100 to 1000 nM	< 100 nM	< 100 nM		
CN(c1ccc2c(n1)OCc1cc(-n3nccn3)ccc1-2)[C@@H]1C[C@H]2CC[C@@H](C1)N2 [Compound 151]	100 to 1000 nM	100 to 1000 nM	100 to 1000 nM	< 100 nM	< 100 nM		
CN(c1ccc2c(n1)OCCc1cc(-c3cn[nH]c3)ccc1-2)[C@@H]1C[C@H]2CC[C@@H](C1)N2 [Compound 146]	> 10000 nM	> 10000 nM	1000 to 10000 nM	1000 to 10000 nM	1000 to 10000 nM		
Cc1cnc(-c2ccc3c(c2)COc2nc(N(C)[C@@H]4C[C@H]5CC[C@@H](C4)N5)ccc2-3)o1 [Compound 206]	100 to 1000 nM	1000 to 10000 nM	100 to 1000 nM	100 to 1000 nM	100 to 1000 nM		
CN(c1ccc2c(n1)OCc1cc(-c3ccn(C)c(=O)c3)ccc1-2)[C@@H]1C[C@H]2CC[C@@H](C1)N2 [Compound 153]	100 to 1000 nM	< 100 nM	< 100 nM	< 100 nM	< 100 nM		
CC1(C)CC(Nc2ccc3c(c2)COc2cc(-n4cccn4)ccc2-3)CC(C)(C)N1 [Compound 118]	> 10000 nM	> 10000 nM	1000 to 10000 nM	> 10000 nM	> 10000 nM		
CN(c1ccc2c(c1)OCc1cc(-n3cccn3)ccc1-2)[C@@H]1C[C@H]2CC[C@@H](C1)N2 [Compound 105]	> 10000 nM	> 10000 nM	1000 to 10000 nM			> 10000 nM	> 10000 nM
CN(c1ccc2c(n1)OCc1cc(-c3cn[nH]c3)ccc1-2)C1CC(C)(C)NC(C)(C)C1 [Compound 147]	1000 to 10000 nM	1000 to 10000 nM	100 to 1000 nM	100 to 1000 nM	100 to 1000 nM		
CN(c1cnc2c(n1)OCc1cc(-c3cn[nH]c3)ccc1-2)[C@@H]1C[C@H]2CC[C@@H](C1)N2 [Compound 144]	100 to 1000 nM	100 to 1000 nM	100 to 1000 nM	100 to 1000 nM	100 to 1000 nM		
COc1cc(-c2ccc3c(c2)COc2nc(N4CCC(N(C)C5CCC5)C4)ccc2-3)cnn1 (stereo not shown) [Compound 307, N-cyclobutyl-1-[8-(6-methoxypyridazin-4-yl)-6H-isochromeno[3,4-b]pyridin-3-yl]-N-methylpyrrolidin-3-amine]	1000 to 10000 nM	100 to 1000 nM	100 to 1000 nM	100 to 1000 nM	100 to 1000 nM		
